Source: the NIST ThermoML archive (doi:10.1021/acs.jced.5b00367)

Test: wn = mass fraction of the nth substance listed
Details: 101 kPa, Liquid, Alternating current cell with electrodes, w1 = 0.01

CCCCCCCCCC[N+](CC)(CC)CCCCCCCCCC.[Br-] [didecyldiethylammonium bromide] + O
Details | electrical conductivity [S/m]
292.15 K | 0.0559
292.25 K | 0.0648
292.35 K | 0.0649
292.45 K | 0.0649
292.55 K | 0.0676
292.65 K | 0.0687
292.75 K | 0.0704
292.85 K | 0.0711
292.95 K | 0.0714
293.05 K | 0.0718
293.15 K | 0.0718
293.35 K | 0.0721
293.45 K | 0.0722
293.55 K | 0.0723
293.65 K | 0.0724
293.75 K | 0.0725
293.85 K | 0.0726
293.95 K | 0.0726
294.05 K | 0.0727
294.15 K | 0.0728
294.35 K | 0.0729
294.45 K | 0.073
294.55 K | 0.0731
294.65 K | 0.0732
294.75 K | 0.0732
294.85 K | 0.0733
294.95 K | 0.0734
295.05 K | 0.0735
295.15 K | 0.0737
295.25 K | 0.0736
295.35 K | 0.0738
295.45 K | 0.0739
295.55 K | 0.074
295.65 K | 0.074
295.75 K | 0.0741
295.85 K | 0.0741
295.95 K | 0.0742
296.05 K | 0.0743
296.15 K | 0.0744
296.25 K | 0.0746
296.35 K | 0.0745
296.45 K | 0.0746
296.55 K | 0.0748
296.65 K | 0.0748
296.75 K | 0.0749
296.85 K | 0.075
296.95 K | 0.075
297.05 K | 0.0752
297.15 K | 0.0752
297.25 K | 0.0752
297.35 K | 0.0754
297.45 K | 0.0755
297.55 K | 0.0755
297.65 K | 0.0757
297.75 K | 0.0757
297.85 K | 0.0758
297.95 K | 0.0759
298.05 K | 0.076
301.15 K | 0.0789
301.25 K | 0.079
301.35 K | 0.0792
301.55 K | 0.0794
301.65 K | 0.0795
301.75 K | 0.0795
301.95 K | 0.0797
302.05 K | 0.0799
302.15 K | 0.08
302.25 K | 0.0801
302.35 K | 0.0802
302.45 K | 0.0802
302.55 K | 0.0803
302.65 K | 0.0803
302.85 K | 0.0806
302.95 K | 0.0807
303.15 K | 0.0809
303.25 K | 0.0811
303.35 K | 0.0811
303.45 K | 0.0812
303.55 K | 0.0814
303.75 K | 0.0816
303.85 K | 0.0817
304.05 K | 0.0818
304.15 K | 0.0819
304.35 K | 0.0821
304.55 K | 0.0823
304.75 K | 0.0825
304.85 K | 0.0826
304.95 K | 0.0827
305.05 K | 0.0829
305.35 K | 0.0831
305.55 K | 0.0831
305.75 K | 0.0836
305.85 K | 0.0838
306.05 K | 0.0839
306.25 K | 0.084
306.35 K | 0.0841
306.45 K | 0.0842
306.65 K | 0.0843
306.75 K | 0.0845
306.95 K | 0.0848
307.05 K | 0.0849
307.25 K | 0.0851
307.55 K | 0.0854
307.65 K | 0.0855
307.85 K | 0.0857
308.15 K | 0.086
308.25 K | 0.0861
308.35 K | 0.0862
308.55 K | 0.0862
308.75 K | 0.0864
308.85 K | 0.0866
309.15 K | 0.0871
309.35 K | 0.0872
309.55 K | 0.0874
309.75 K | 0.0876
309.85 K | 0.0877
309.95 K | 0.0878
310.25 K | 0.088
310.45 K | 0.0882
310.55 K | 0.0883
310.65 K | 0.0884
310.95 K | 0.0888
311.05 K | 0.089
311.25 K | 0.0893
311.45 K | 0.0894
311.65 K | 0.0894
311.75 K | 0.0896
311.85 K | 0.0897
312.15 K | 0.09
312.35 K | 0.0901
312.45 K | 0.0902
312.55 K | 0.0904
312.75 K | 0.0906
312.95 K | 0.0908
313.15 K | 0.091
